Experimental data as given in ChEMBL document CHEMBL3243959, “In vitro metabolism of a new 4-hydroxycoumarin anticoagulant. Structure of an unusual metabolite” (J Med Chem, 1977).
Active and inactive are the calls of the source. The rule behind the calls is not given here.

Columns and labels:
Liver microsome [1] = experiment: Drug level in Wistar albino rat liver microsomes treated with clocoumarol at 5 umol after 30 mins TLC analysis in presence of NADPH generating system; type: ADME; conditions: 0.5 h
[2] = Retardation factor of the compound in 9:1 v/v benzene-ethyl acetate solvent system by TLC analysis; type: physicochemical
[3] = Retardation factor of the compound in 9:1 v/v dichloroethane-acetone solvent system by TLC analysis; type: physicochemical
[4] = Retardation factor of the compound in 20:3 v/v benzene-acetic acid solvent system by TLC analysis; type: physicochemical
[5] = Drug level in Duncan-Hartley guinea pig liver microsomes treated with clocoumarol at 5 umol after 30 mins by TLC analysis in presence of NADPH generating system; type: ADME, Cavia porcellus; conditions: 0.5 h
[6] = Drug level in CBRI mouse liver microsomes treated with clocoumarol at 5 umol after 30 mins by TLC analysis in presence of NADPH generating system; type: ADME; conditions: 0.5 h
Liver microsome [7] = experiment: Drug level in Wistar albino rat washed liver microsomal fraction treated with clocoumarol at 5 umol after 30 mins by TLC analysis; type: ADME; conditions: microsomes, 0.5 h
Liver microsome [8] = experiment: Drug metabolism Wistar albino rat liver microsomes assessed as formation of 6-[1-Hydroxy-2-oxo-3-[p-(2-chloroethyl)phenyl]hexylidene]-2,4-cyclohexadien-1-one at 5 umol after 30 mins by TLC analysis in presence of carbon monooxide; type: ADME; conditions: 0.5 h
Liver microsome [9] = experiment: Drug level in Wistar albino rat liver microsomes treated with clocoumarol at 5 umol after 30 mins by TLC analysis in presence of NADP/NAD/NADH/oxygen; type: ADME; conditions: 0.5 h
Rattus norvegicus = experiment: Anticoagulant activity in rat at 100 x 0.25 mg/kg, ip; type: functional, organism-based; design: dose 0.25 mg/kg
[10] = Drug metabolism in Duncan-Hartley guinea pig liver microsomes assessed as formation of 6-[1-Hydroxy-2-oxo-3-[p-(2-chloroethyl)phenyl]hexylidene]-2,4-cyclohexadien-1-one at 5 umol after 30 mins by TLC analysis in presence of NADPH generating system; type: ADME, Cavia porcellus; conditions: 0.5 h
[11] = Drug metabolism in CBRI mouse liver microsomes assessed as formation of 6-[1-Hydroxy-2-oxo-3-[p-(2-chloroethyl)phenyl]hexylidene]-2,4-cyclohexadien-1-one at 5 umol after 30 mins by TLC analysis in presence of NADPH generating system; type: ADME; conditions: 0.5 h
Liver microsome [12] = experiment: Drug metabolism in Wistar albino rat liver microsomes assessed as formation of 6-[1-Hydroxy-2-oxo-3-[p-(2-chloroethyl)phenyl]hexylidene]-2,4-cyclohexadien-1-one at 5 umol after 30 mins by TLC analysis in presence of NADP/NAD/NADH/oxygen; type: ADME; conditions: 0.5 h
Liver microsome [13] = experiment: Drug metabolism in Wistar albino rat liver microsomes assessed as formation of 6-[1-Hydroxy-2-oxo-3-[p-(2-chloroethyl)phenyl]hexylidene]-2,4-cyclohexadien-1-one at 5 umol after 30 mins by TLC analysis in presence of nitrogen; type: ADME; conditions: 0.5 h
Liver microsome [14] = experiment: Drug metabolism in Wistar albino rat washed liver microsomal fraction assessed as formation of 6-[1-Hydroxy-2-oxo-3-[p-(2-chloroethyl)phenyl]hexylidene]-2,4-cyclohexadien-1-one at 5 umol after 30 mins by TLC analysis; type: ADME; conditions: microsomes, 0.5 h
[15] = Drug metabolism in Wistar albino rat liver nuclear fraction assessed as formation of 6-[1-Hydroxy-2-oxo-3-[p-(2-chloroethyl)phenyl]hexylidene]-2,4-cyclohexadien-1-one at 5 umol after 30 mins by TLC analysis; type: ADME; conditions: 0.5 h
[16] = Drug metabolism in Wistar albino rat mitochondrial fraction assessed as formation of 6-[1-Hydroxy-2-oxo-3-[p-(2-chloroethyl)phenyl]hexylidene]-2,4-cyclohexadien-1-one at 5 umol after 30 mins by TLC analysis; type: ADME, Mitochondria; conditions: 0.5 h
Liver microsome [17] = experiment: Drug metabolism in Wistar albino rat liver soluble microsomal fraction assessed as formation of 6-[1-Hydroxy-2-oxo-3-[p-(2-chloroethyl)phenyl]hexylidene]-2,4-cyclohexadien-1-one; type: ADME; conditions: microsomes

SMILES | Drug metabolism (Liver microsome [1]) | Rf [2] | Rf [3] | Rf [4] | Drug metabolism [5] | Drug metabolism [6] | Drug metabolism (Liver microsome [7]) | Drug metabolism (Liver microsome [8]) | Drug metabolism (Liver microsome [9]) | Activity (Rattus norvegicus) | Drug metabolism [10] | Drug metabolism [11] | Drug metabolism (Liver microsome [12]) | Drug metabolism (Liver microsome [13]) | Drug metabolism (Liver microsome [14]) | Drug metabolism [15] | Drug metabolism [16] | Drug metabolism (Liver microsome [17])
CCCC(C(=O)/C(O)=C1\C=CC=CC1=O)c1ccc(CCCl)cc1 (stereo unspecified) | metabolite_detected | 0.44 | 0.61 | 0.74 | metabolite_detected | metabolite_detected | metabolite_detected | metabolite_notdetected | metabolite_detected | inactive |  |  |  |  |  |  |  | 
CCCC(c1ccc(CCCl)cc1)c1c(O)c2ccccc2oc1=O (stereo unspecified) [CLOCOUMAROL] |  | 0.33 | 0.53 | 0.67 |  |  |  |  |  |  | metabolite_detected | metabolite_detected | metabolite_detected | metabolite_notdetected | metabolite_detected | metabolite_notdetected | metabolite_notdetected | metabolite_notdetected
